The numbers were not newly measured in patent US8563018B2, “Foamable pesticide compositions” (priority 2009, dated 2013), which cites them from elsewhere.

The subject of one data set is termites. The conditions noted are these: in vivo.
In a further data set the test system is ants. The following applies: in vivo.

As to `N#Cc1nn(-c2c(Cl)cc(C(F)(F)F)cc2Cl)c(N)c1[S+]([O-])C(F)(F)F` (racemic) [Fipronil, (±)-5-amino-1-(2,6-dichloro-α,α,α-trifluoro-p-tolyl)-4-trifluoromethylsulfinylpyrazole-3-carbonitrile], the “dose toxic to termites” value in the data set with termites was 2 nanograms per termite. In addition, the “dose toxic to ants” value in the data set on ants is recorded as “about 1 nanogram per ant”.
